Measured values from US10806785B2, “Immunomodulator compounds and methods of use” (Incyte Corporation, priority 2016, dated 2020).

Target: PD-1/PD-L1 (Homo sapiens (Human), UniProt Q9NZQ7)
Test: PD-1/PD-L1 binding assay (HTRF)
Description: The assays were conducted in a standard black 384-well polystyrene plate with a final volume of 20 μL. Inhibitors were first serially diluted in DMSO and then added to the plate wells before the addition of other reaction components. The final concentration of DMSO in the assay was 1%. The assays were carried out at 25° C. in the PBS buffer (pH 7.4) with 0.05% Tween-20 and 0.1% BSA. Recombinant human PD-L1 protein (19-238) with a His-tag at the C-terminus was purchased from AcroBiosystems (PD1-H5229). Recombinant human PD-1 protein (25-167) with Fc tag at the C-terminus was also purchased from AcroBiosystems (PD1-H5257). PD-L1 and PD-1 proteins were diluted in the assay buffer and 10 μL was added to the plate well. Plates were centrifuged and proteins were preincubated with inhibitors for 40 minutes. The incubation was followed by the addition of 10 μL of HTRF detection buffer supplemented with Europium cryptate-labeled anti-human IgG (PerkinElmer-AD0212) specific for Fc and anti-His antibody conjugated to SureLight®-Allophycocyanin (APC, PerkinElmer-AD0059H). After centrifugation, the plate was incubated at 25° C. for 60 min. before reading on a PHERAstar FS plate reader (665 nm/620 nm ratio). Final concentrations in the assay were […], 10 nM PD-L1, 1 nM europium anti-human IgG and 20 nM anti-His-Allophycocyanin. IC50 determination was performed by fitting the curve of percent control activity versus the log of the inhibitor concentration using the GraphPad Prism 5.0 software.

PD-1/PD-L1, sequence (Q9NZQ7 19-238): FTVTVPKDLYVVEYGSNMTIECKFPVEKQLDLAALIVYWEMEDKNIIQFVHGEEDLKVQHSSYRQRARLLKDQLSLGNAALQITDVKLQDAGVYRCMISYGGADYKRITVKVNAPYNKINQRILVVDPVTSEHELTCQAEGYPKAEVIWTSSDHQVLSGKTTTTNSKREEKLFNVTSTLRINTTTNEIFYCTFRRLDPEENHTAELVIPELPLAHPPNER

SMILES	IC50
Cn1c(C(=O)Nc2cccc(-c3cccc(-c4nc5c(o4)CN(C(=O)CN4CC(O)C4)C5)c3Cl)c2Cl)nc2c1CCN(CCC1CCC(C(=O)O)CC1)C2 (centres unmarked) [Compound 170, 4-(2-(2-(2,2′-dichloro-3′-(5-(2-(3-hydroxyazetidin-1-yl)acetyl)-5,6-dihydro-4H-pyrrolo[3,4-d]oxazol-2-yl)biphenyl-3-ylcarbamoyl)-1-methyl-6,7-dihydro-1H-imidazo[4,5-c]pyridin-5(4H)-yl)ethyl)cyclohexane-1-carboxylic acid]	≤ 10 nM
Cn1c(C(=O)Nc2cccc(-c3cccc(-c4nc5c(o4)CN(C(=O)CN4CC[C@@H](O)C4)C5)c3Cl)c2Cl)nc2c1CCN(CCC1CCC(C(=O)O)CC1)C2 (stereo partly drawn) [Compound 171, (R)-4-(2-(2-(2,2′-dichloro-3′-(5-(2-(3-hydroxypyrrolidin-1-yl)acetyl)-5,6-dihydro-4H-pyrrolo[3,4-d]oxazol-2-yl)biphenyl-3-ylcarbamoyl)-1-methyl-6,7-dihydro-1H-imidazo[4,5-c]pyridin-5(4H)-yl)ethyl)cyclohexane-1-carboxylic acid]	≤ 10 nM
CCN(C)CC(=O)N1Cc2nc(-c3cccc(-c4cccc(NC(=O)c5nc6c(n5C)CCN(C[C@H]5CC[C@H](C(=O)O)CC5)C6)c4Cl)c3Cl)oc2C1 [Compound 172, trans-4-((2-((2,2′-dichloro-3′-(5-(N-ethyl-N-methylglycyl)-5,6-dihydro-4H-pyrrolo[3,4-d]oxazol-2-yl)-[1,1′-biphenyl]-3-yl)carbamoyl)-1-methyl-1,4,6,7-tetrahydro-5H-imidazo[4,5-c]pyridin-5-yl)methyl)cyclohexane-1-carboxylic acid]	≤ 10 nM
CCN(C)CC(=O)N1Cc2nc(-c3cccc(-c4cccc(NC(=O)c5nc6c(n5C)CCN(C5CCC(C)(C(=O)O)CC5)C6)c4C)c3C)oc2C1 (centres unmarked) [Compound 173, 4-(2-((3′-(5-(N-ethyl-N-methylglycyl)-5,6-dihydro-4H-pyrrolo[3,4-d]oxazol-2-yl)-2,2′-dimethyl-[1,1′-biphenyl]-3-yl)carbamoyl)-1-methyl-1,4,6,7-tetrahydro-5H-imidazo[4,5-c]pyridin-5-yl)-1-methylcyclohexane-1-carboxylic acid]	≤ 10 nM
CCN(C)CCC(=O)N1Cc2nc(-c3cccc(-c4cccc(NC(=O)c5nc6c(n5C)CCN(C5CCC(C)(C(=O)O)CC5)C6)c4Cl)c3Cl)oc2C1 (centres unmarked) [Compound 174, 4-(2-((2,2′-dichloro-3′-(5-(3-(ethyl(methyl)amino)propanoyl)-5,6-dihydro-4H-pyrrolo[3,4-d]oxazol-2-yl)-[1,1′-biphenyl]-3-yl)carbamoyl)-1-methyl-1,4,6,7-tetrahydro-5H-imidazo[4,5-c]pyridin-5-yl)-1-methylcyclohexane-1-carboxylic acid]	≤ 10 nM
CCN1CCc2c(nc(C(=O)Nc3cccc(-c4cccc(NC(=O)c5nc6c(n5C)CCN(CC57CCC(C(=O)O)(CC5)C7)C6)c4Cl)c3Cl)n2C)C1 [Compound 176, 4-((2-(2,2′-dichloro-3′-(5-ethyl-1-methyl-4,5,6,7-tetrahydro-1H-imidazo[4,5-c]pyridine-2-carboxamido)biphenyl-3-ylcarbamoyl)-1-methyl-6,7-dihydro-1H-imidazo[4,5-c]pyridin-5(4H)-yl)methyl)bicyclo[2.2.1]heptane-1-carboxylic acid]	≤ 10 nM
CC(C)N1CCc2c(nc(C(=O)Nc3cccc(-c4cccc(NC(=O)c5nc6c(n5C)CCN(CC57CCC(C(=O)O)(CC5)C7)C6)c4Cl)c3Cl)n2C)C1 [Compound 177, 4-((2-(2,2′-dichloro-3′-(5-isopropyl-1-methyl-4,5,6,7-tetrahydro-1H-imidazo[4,5-c]pyridine-2-carboxamido)biphenyl-3-ylcarbamoyl)-1-methyl-6,7-dihydro-1H-imidazo[4,5-c]pyridin-5(4H)-yl)methyl)bicyclo[2.2.1]heptane-1-carboxylic acid]	≤ 10 nM
Cn1c(C(=O)Nc2cccc(-c3cccc(NC(=O)c4nc5c(n4C)CCN(C4CCC4)C5)c3Cl)c2Cl)nc2c1CCN(CC13CCC(C(=O)O)(CC1)C3)C2 [Compound 178, 4-((2-(2,2′-dichloro-3′-(5-cyclobutyl-1-methyl-4,5,6,7-tetrahydro-1H-imidazo[4,5-c]pyridine-2-carboxamido)biphenyl-3-ylcarbamoyl)-1-methyl-6,7-dihydro-1H-imidazo[4,5-c]pyridin-5(4H)-yl)methyl)bicyclo[2.2.1]heptane-1-carboxylic acid]	≤ 10 nM
Cn1c(C(=O)Nc2cccc(-c3cccc(NC(=O)c4nc5c(n4C)CCN(C4CCOCC4)C5)c3Cl)c2Cl)nc2c1CCN(CC13CCC(C(=O)O)(CC1)C3)C2 [Compound 179, 4-((2-(2,2′-dichloro-3′-(1-methyl-5-(tetrahydro-2H-pyran-4-yl)-4,5,6,7-tetrahydro-1H-imidazo[4,5-c]pyridine-2-carboxamido)biphenyl-3-ylcarbamoyl)-1-methyl-6,7-dihydro-1H-imidazo[4,5-c]pyridin-5(4H)-yl)methyl)bicyclo[2.2.1]heptane-1-carboxylic acid]	10 to 100 nM
Cn1c(C(=O)Nc2cccc(-c3cccc(NC(=O)c4nc5c(n4C)CCN(CC46CCC(C(=O)O)(CC4)C6)C5)c3Cl)c2Cl)nc2c1CCN(CCO)C2 [Compound 180, 4-((2-(2,2′-dichloro-3′-(5-(2-hydroxyethyl)-1-methyl-4,5,6,7-tetrahydro-1H-imidazo[4,5-c]pyridine-2-carboxamido)biphenyl-3-ylcarbamoyl)-1-methyl-6,7-dihydro-1H-imidazo[4,5-c]pyridin-5(4H)-yl)methyl)bicyclo[2.2.1]heptane-1-carboxylic acid]	≤ 10 nM
C[C@H](O)CN1CCc2c(nc(C(=O)Nc3cccc(-c4cccc(NC(=O)c5nc6c(n5C)CCN(C)C6)c4Cl)c3Cl)n2C)C1 [Example 27, (S)—N-(2,2′-dichloro-3′-(1,5-dimethyl-4,5,6,7-tetrahydro-1H-imidazo[4,5-c]pyridine-2-carboxamido)biphenyl-3-yl)-5-(2-hydroxypropyl)-1-methyl-4,5,6,7-tetrahydro-1H-imidazo[4,5-c]pyridine-2-carboxamide]	≤ 10 nM
Cc1c(NC(=O)c2nc3c(n2C)CCN(C2CCN(S(C)(=O)=O)CC2)C3)cccc1-c1cccc(NC(=O)c2nc3c(n2C)CCN(C)C3)c1Cl [Example 28, N-(2-chloro-2′-methyl-3′-(1-methyl-5-(1-(methylsulfonyl)piperidin-4-yl)-4,5,6,7-tetrahydro-1H-imidazo[4,5-c]pyridine-2-carboxamido)biphenyl-3-yl)-1,5-dimethyl-4,5,6,7-tetrahydro-1H-imidazo[4,5-c]pyridine-2-carboxamide]	≤ 10 nM
Cc1c(NC(=O)c2nc3c(n2C)CCN(C2CCOCC2)C3)cccc1-c1cccc(NC(=O)c2nc3c(n2C)CCN(C)C3)c1Cl [Example 29, N-(2-chloro-2′-methyl-3′-(1-methyl-5-(tetrahydro-2H-pyran-4-yl)-4,5,6,7-tetrahydro-1H-imidazo[4,5-c]pyridine-2-carboxamido)biphenyl-3-yl)-1,5-dimethyl-4,5,6,7-tetrahydro-1H-imidazo[4,5-c]pyridine-2-carboxamide]	≤ 10 nM
Cc1c(NC(=O)c2nc3c(n2C)CCN(CC2CCOCC2)C3)cccc1-c1cccc(NC(=O)c2nc3c(n2C)CCN(C)C3)c1Cl [Example 30, N-(2-chloro-2′-methyl-3′-(1-methyl-5-((tetrahydro-2H-pyran-4-yl)methyl)-4,5,6,7-tetrahydro-1H-imidazo[4,5-c]pyridine-2-carboxamido)biphenyl-3-yl)-1,5-dimethyl-4,5,6,7-tetrahydro-1H-imidazo[4,5-c]pyridine-2-carboxamide]	≤ 10 nM
Cc1c(NC(=O)c2nc3c(n2C)CCN(CC2(CO)CC2)C3)cccc1-c1cccc(NC(=O)c2nc3c(n2C)CCN(C)C3)c1Cl [Example 31, N-(2′-chloro-3′-(1,5-dimethyl-4,5,6,7-tetrahydro-1H-imidazo[4,5-c]pyridine-2-carboxamido)-2-methylbiphenyl-3-yl)-5-((1-(hydroxymethyl)cyclopropyl)methyl)-1-methyl-4,5,6,7-tetrahydro-1H-imidazo[4,5-c]pyridine-2-carboxamide]	≤ 10 nM
Cc1c(NC(=O)c2nc3c(n2C)CCN(C[C@H](O)CO)C3)cccc1-c1cccc(NC(=O)c2nc3c(n2C)CCN(C)C3)c1Cl [Example 32, (S)—N-(2′-chloro-3′-(1,5-dimethyl-4,5,6,7-tetrahydro-1H-imidazo[4,5-c]pyridine-2-carboxamido)-2-methylbiphenyl-3-yl)-5-(2,3-dihydroxypropyl)-1-methyl-4,5,6,7-tetrahydro-1H-imidazo[4,5-c]pyridine-2-carboxamide]	≤ 10 nM
Cc1c(NC(=O)c2nc3c(n2C)CCN(CC(=O)O)C3)cccc1-c1cccc(NC(=O)c2nc3c(n2C)CCN(C)C3)c1Cl [Example 33, 2-(2-(2′-chloro-3′-(1,5-dimethyl-4,5,6,7-tetrahydro-1H-imidazo[4,5-c]pyridine-2-carboxamido)-2-methylbiphenyl-3-ylcarbamoyl)-1-methyl-6,7-dihydro-1H-imidazo[4,5-c]pyridin-5(4H)-yl)acetic Acid]	≤ 10 nM
